Like-named read-outs stand apart in the source and are kept apart here.
Legend:
Hepatitis B virus [1] = test system: Hepatitis B virus; parameters: species or system rhesus monkeys; conditions: rhesus monkey, in vivo
Vaccinia Virus [2] = conditions: 10% (v/v) chloroform
Avian influenza virus [3] = conditions: 10% (v/v) chloroform
Vaccinia virus [4] = test system: Vaccinia virus
[5] = test system: non-A, non-B hepatitis virus (H strain)
Factor VIII:c = conditions: Factorate
Procedure: (§1) Lyophilized Factor VIII (Factorate--Armour) was extracted with chloroform using three different procedures.
(§2) A. 1 gram of Factorate (dry powder) was mixed at 4° C. for 20 minutes with 20 ml of cold chloroform. The chloroform was then removed by filtration and the dry powder was washed on the filter with an additional 10 ml of cold chloroform.
(§3) B. 1 gram of Factorate (dry powder) was mixed with 10 ml of cold chloroform at 4° C. for 10 minutes. The chloroform was removed by filtration and the powder was washed on the filter with 5 ml of cold chloroform. This process was then repeated a second time.
(§4) C. 1 gram of Factorate (dry powder) was mixed with 20 ml of chloroform at room temperature for 20 minutes. The chloroform was removed by filtration and the dry powder was washed on the filter with 10 ml of chloroform at room temperature.

Fibrinogen = conditions: Factorate
Procedure: as §1, §2, §3, §4

Fibronectin = conditions: Factorate
Procedure: as §1, §2, §3, §4

Avian influenza virus [6] = conditions: for Percent Inactivation: Influenza, dry state 20 min, Factor VIII
Polio Virus Type 1 = conditions: 10% (v/v) chloroform
Hepatitis B virus [7] = conditions: in vivo
Vaccinia virus [8] = conditions: for inactivation of vaccinia virus: dry product 20 minutes, Factor 8; for Percent Inactivation: Vaccinia, dry state 20 min, Factor VIII
[9] = preliminary, uncontrolled, 10^-2 dilution of H plasma, 5% v/v chloroform

CCOCC [ether, diethyl ether]
inactivation of the virus (Hepatitis B virus [1]): inactivated

ClC(Cl)Cl [Chloroform, chloroform]
Virus Titer Log10 ID50 /0.1 ml after CHCl3 extraction (Vaccinia Virus [2]; Vaccinia virus in Fetal Calf Serum, 1:100, 10 min, room temperature): ≤ 0.5 Log10 ID50 /0.1 ml
reaction of control virus to chloroform treatment (Vaccinia Virus [2]; Vaccinia virus): totally inactivated
reaction of control virus to chloroform treatment (Avian influenza virus [3]): totally inactivated
inactivation of vaccinia virus (Vaccinia virus [4]; after 20 minutes, dry state, room temperature (20° C.)): 90%
inactivation of vaccinia virus (Vaccinia virus [4]; after 2 hours, dry state, room temperature (20° C.)): 98%
inactivation of vaccinia virus (Vaccinia virus [4]; after 4 hours or more, dry state, room temperature (20° C.)): completely inactivated
inactivation of vaccinia virus (Vaccinia virus [4]; regardless whether in the liquid or dry state, longer time required when dry): completely inactivated
inactivation of 10^4 chimpanzee infectious doses ([5]; 10^4 chimpanzee infectious doses of the H strain of NANB): inactivated
evidence of hepatitis ([5]; chimpanzee 947, following either chloroform-treated or sham-treated H plasma): no evidence of hepatitis
biochemical evidence of hepatitis (weekly ALT levels) ([5]; chimpanzees 889 and 947, chloroform-treated H plasma, 10% (v/v) chloroform): none of these animals developed biochemical evidence of hepatitis
incubation period [5, 9]: 9.5 weeks
infectivity after chloroform treatment [5, 9]: still infectious
virus titer (indicated by incubation period) [5, 9]: reduced
Factor VIII Units/ml (Factor VIII:c; 4° C. 1 × Extracted (control 9.1)): 8.9 Units/ml
Factor VIII Units/ml (Factor VIII:c; 4° C. 2 × Extracted (control 9.1)): 9.3 Units/ml
Factor VIII Units/ml (Factor VIII:c; Room Temp. Extraction (control 9.1)): 9.5 Units/ml
Fibrinogen (Fibrinogen; 4° C. 1 × Extracted (control 8.9 mg)): 9.3 mg/mL
Fibrinogen (Fibrinogen; 4° C. 2 × Extracted (control 8.9 mg)): 8.6 mg/mL
Fibrinogen (Fibrinogen; Room Temp. Extraction (control 8.9 mg)): 9.3 mg/mL
Fibronectin (Fibronectin; 4° C. 1 × Extracted (control 1.11 mg)): 1.19 mg/mL
Fibronectin (Fibronectin; 4° C. 2 × Extracted (control 1.11 mg)): 1.29 mg/mL
Fibronectin (Fibronectin; Room Temp. Extraction (control 1.11 mg)): 1.14 mg/mL
Virus Titer Log10 ID50 /0.1 ml after CHCl3 extraction (coliphage .phi.×174): 9.0 Log10 ID50 /0.1 ml
reaction of control virus to chloroform treatment (coliphage .phi.×174): essentially unaffected
Percent Inactivation (Avian influenza virus [6]; 4° C.): 99.8%
Percent Inactivation (Avian influenza virus [6]; 20° C.): 90%
completeness of inactivation of avian influenza virus (Avian influenza virus [6]; dry product 20 minutes, Factor 8): inactivation was not complete
inactivation of avian influenza virus (Avian influenza virus [6]; dry product 20 minutes, Factor 8, similar conditions of treatment): 90-99.8%
inactivation of the virus (Hepatitis B virus [1]): inactivated
Virus Titer Log10 ID50 /0.1 ml after CHCl3 extraction (Polio Virus Type 1; Polio virus type 1 in Fetal Calf Serum, 1:100, 10 min, room temperature): 6.5 Log10 ID50 /0.1 ml
reaction of control virus to chloroform treatment (Polio Virus Type 1; poliovirus): essentially unaffected
anti-HBs / anti-HBc response (Hepatitis B virus [7]): did develop anti-HBs but not anti-HBc
biochemical evidence of hepatitis (weekly ALT levels) (Hepatitis B virus [7]): none of these animals developed biochemical evidence of hepatitis
inactivation of vaccinia virus (Vaccinia virus [8]; 4°): not inactivated
inactivation of vaccinia virus (Vaccinia virus [8]; 20° and 40° C.): partially inactivated
Percent Inactivation (Vaccinia virus [8]; 4° C.): 0%
Percent Inactivation (Vaccinia virus [8]; 20° C.): 70%
Percent Inactivation (Vaccinia virus [8]; 40° C.): 70%

From patent publication US4581231A (priority 1983, dated 1986)
